Data as given in patent USRE49351E1, “Cytoprotective agent” (Biogen MA Inc., priority 2009, dated 2023).
Structures can show the parent of a compound that is named as a salt.

Columns and labels:
[1] = modified H-ORAC (mH-ORAC) assay; assay type: biochemical; settings: acetone solution, acetone final concentration 1.25%
Procedure: (§1) To study the free radical scavenging activity of a triprenyl phenol compound, the following H-ORAC (hydrophilic oxygen radical absorbance capacity) assay, and modified H-ORAC (mH-ORAC) assay were conducted.
(§2) SMTP compounds evaluated by H-ORAC were used respectively in a form of a sodium salt aqueous solution, and the compounds evaluated by mH-ORAC were used respectively in a form of an acetone solution.
(§3) In H-ORAC a test compound was diluted appropriately with a buffer solution (75 mM phosphate buffer solution, pH 7.4) and used for measurement. In mH-ORAC a test compound was diluted appropriately by a 50% (v/v) acetone solution, prepared by diluting an acetone solution with water, to prepare a solution of 40-fold the final concentration. […] As for the reference material Trolox, 500 μM/buffer solution was diluted appropriately with a buffer solution.
(§4) To a 96-well microplate (transparent, flat bottom, black wall) 50 μL of a test compound solution or a Trolox solution was placed, and additionally 100 μL of a fluorescein 140 nM/buffer solution as a fluorescent substance was added (final concentration 70 nM), followed by incubation at 37° C. for […].
(§5) As a free radical generator, 50 μL of a 48 mM/buffer solution of 2,2′-azobis(amidinopropane)dihydrochloride was added (final concentration 12 mM), and fluorescence intensity at fluorescence wavelength of 535 nm with excitation wavelength of 485 nm was measured at 2 min intervals for 90 min. The calibration curve was prepared between the Trolox final concentrations of 5 to 15 μM. The measurement was conducted by changing the concentration with n=3, and plotted on a diagram with time on the abscissa and the fluorescence intensity on the ordinate. Therewith evaluation was made using the value obtained by reducing the area under the curve for the blank from the area under the curve for the sample. The result was expressed as an equivalent to Trolox.

[2] = H-ORAC (hydrophilic oxygen radical absorbance capacity) assay; assay type: biochemical; settings: sodium salt aqueous solution, phosphate buffer pH 7.4
Procedure: as §1, §2, §3, §4, §5

[3] = system: Mongolian gerbil cerebral infarction model; assay: Mongolian gerbil cerebral infarction model (acetic acid-induced thrombus): infarction area percentage and neurological symptom; assay type: in vivo; settings: mean ± SE, n=6; for Infarction area: evaluated 24 h; for Neurological scores: score 0-4 at 24 h
Excerpt: Anesthesia was induced to a male Mongolian gerbil (body weight 55 to 65 g) by inhalation of 5% isoflurane (trade name Escain, Mylan Inc.), and maintained with 1 to 1.5% isoflurane. The Mongolian gerbil was fixed in a dorsal position, and the neck was dehaired and then disinfected with 70% ethanol. After median incision of the neck, the right common carotid artery was detached, clamped to block the blood flow temporarily, and coated with 100% acetic acid by 30 reciprocating motions so as to produce a thrombus. The blood vessel was reopened after 10 min of the blockage of the blood flow to transfer the thrombus by the blood stream into the brain to make it ischemic and generate cerebral infarction. The operating field was closed with an instant adhesive (trade name Aron Alpha (Krazy Glue), Toagosei Co., Ltd.) and disinfected with 70% ethanol.
Twenty four hours after the initiation of the operation neurological symptoms were observed as an indicator for cerebral infarction. Many types of neurological symptoms specific to cerebral infarction, such as extension of a hindlimb or circling to one direction, have been reported. Applying a modified evaluation method of the method proposed by Longa, et al. (Stroke 1989; 20:84-91) postoperative neurological symptoms were evaluated as per: no deficit, 0; extension of limb, 1; circling to one direction, 2; incline posture, 3; diminished motion, 4.
With respect to statistical analysis, for multiple comparisons was conducted firstly one-way analysis of variance (ANOVA) and then a Bonferroni test was conducted, if significant difference is detected. Significant difference was positively recognized with significance level 5% (P<0.05). All the results are expressed in mean±standard error.
After the evaluation of neurological symptoms according to the above method, the animal was decapitated under anesthesia with isoflurane. The cranial bone was exfoliated of skin and opened, and, after scission of optic nerve, the brain was extirpated and dipped in a physiological saline solution to remove attached body hairs, etc. The extirpated brain was placed in a brain matrix (RBM-1000C, ASI Instruments) to carry out coronal slicing from the frontal pole at thickness of 2 mm. The slices were dipped in 2% 2,3,5-triphenyl-2H-tetrazolium chloride (TTC), and incubated for staining at 37° C. for 30 min in a CO2 incubator. The colorless TTC is reduced by hydrogen liberated by the action of dehydrogenase contained in a normal cell converting to dark red colored water-insoluble 1,3,5-triphenylformazan (TPF), so that the normal cell is stained. Unstained area (white area) was defined as an infarction area. Meanwhile, the corpus callosum, which is commissural fibers connecting the right and left cerebral hemispheres, is not stained and is white, and therefore image processing for the analyses as described below was conducted excluding the corpus callosum.
After staining images of the brain slices were taken by a digital camera under a stereoscopic microscope. For analysis of the infarction area percentage, an image analysis software Image J (Version 1.4) was used. Full, excluding the corpus callosum, images of the taken 2nd, 3rd, and 4th brain slice images were converted to grayscale. From the grayscale images a histogram for the whole brain as the object scope was obtained showing in the ordinate the frequency of occurrence (frequency) at certain brightness, and showing in the abscissa the brightness (0 to 255). The sum from 0 to 255 was defined as the area size of the whole brain, and the sum from 160 to 219 was defined as the area size of the infarction area. Then the infarction area percentage was determined according to the following formula using the total area size of the infarction areas and the total area size of the whole brain, of the 3 brain slice images. Statistical analysis was conducted as above. […]

[4] = 1 mg/kg i.v., administration initiated 1 hr after ischemia
[5] = 3 mg/kg i.v., administration initiated 0 hr after ischemia
[6] = 3 mg/kg i.v., administration initiated 1 hr after ischemia
[7] = 3 mg/kg i.v., administration initiated 3 hr after ischemia
[8] = 10 mg/kg i.v., administration initiated 1 hr after ischemia
[9] = 1 mg/kg i.v., administration initiated 0 hr after ischemia

**Q.** For `CC(C)=CCC/C(C)=C/CC[C@]1(C)Oc2c(c(O)cc3c2CNC3=O)C[C@@H]1O` [SMTP-0], which “free radical scavenging activity, Trolox equivalent” value (shortened to “free radical scavenging activity”) [1] is on record?
**A.** 7.76 ± 0.36 molTE/mol

**Q.** With `CC(C)=CCC/C(C)=C/CCC1(C)Oc2c(c(O)cc3c2CN([C@H](CC(C)C)C(=O)O)C3=O)CC1O` (stereo partly drawn) [SMTP-5D] as the molecule, how does the “free radical scavenging activity” value [2] read?
**A.** 1.71 ± 0.20 molTE/mol

**Q.** What does the source list for `CC1=NN(c2ccccc2)C(=O)C1` [edaravone]?
**A.** Infarction area [3, 4]: 12.8 ± 2.87%; Neurological scores [3, 4]: 3.17 ± 0.17; Infarction area [3, 5]: 9.95 ± 3.22%; Neurological scores [3, 5]: 1.50 ± 0.67; Infarction area [3, 6]: 8.29 ± 1.61 %; Neurological scores [3, 6]: 1.50 ± 0.67; Infarction area [3, 7]: 12.3 ± 5.59%; Neurological scores [3, 7]: 2.50 ± 0.56; Infarction area [3, 8]: 9.29 ± 2.17%; Neurological scores [3, 8]: 1.83 ± 0.65

**Q.** For `CC(C)=CCCC(C)=CCC[C@]1(C)Oc2c(c(O)cc3c2CN(c2ccc(S(=O)(=O)O)cc2)C3=O)C[C@@H]1O` [SMTP-42], which “free radical scavenging activity” value [2] is on record?
**A.** 3.28 ± 0.25 molTE/mol

**Q.** For `CSCC[C@@H](C(=O)O)N1Cc2c(cc(O)c3c2O[C@@](C)(CCC=C(C)CCC=C(C)C)[C@@H](O)C3)C1=O` [SMTP-13], which “free radical scavenging activity” value [2] is on record?
**A.** 3.07 ± 0.51 molTE/mol

**Q.** What does the source list for `CC1CNc2c(cccc2S(=O)(=O)N[C@@H](CCCNC(=N)N)C(=O)N2CC[C@@H](C)C[C@@H]2C(=O)O)C1` (stereo partly drawn) [argatroban]?
**A.** Infarction area [3, 9]: 10.0 ± 2.66%; Neurological scores [3, 9]: 2.33 ± 0.61; Infarction area [3, 4]: 12.1 ± 2.46%; Neurological scores [3, 4]: 2.50 ± 0.50; Infarction area [3, 8]: 11.5 ± 2.57%; Neurological scores [3, 8]: 2.50 ± 0.56

**Q.** For `CC(C)=CCCC(C)=CCC[C@]1(C)Oc2c(c(O)cc3c2CN([C@@H](Cc2ccc(O)cc2)C(=O)O)C3=O)C[C@@H]1O` [SMTP-14], which “free radical scavenging activity” value [2] is on record?
**A.** 4.43 ± 0.49 molTE/mol

**Q.** With `Clc1ccccc1CN1CCc2sccc2C1` [ticlopidine HCl] as the molecule, how does the Infarction area [3, 9] read?
**A.** 8.83 ± 1.73%

**Q.** And the Neurological scores [3, 9]?
**A.** 2.33 ± 0.42

**Q.** And the Infarction area [3, 4]?
**A.** 13.1 ± 3.89%

**Q.** What about the Neurological scores [3, 4] of the same molecule?
**A.** 2.67 ± 0.56

**Q.** And the Infarction area [3, 8]?
**A.** 9.84 ± 1.81%

**Q.** And the Neurological scores [3, 8]?
**A.** 2.33 ± 0.42

**Q.** Which “free radical scavenging activity” value [2] does the source give for `CC(C)=CCC/C(C)=C/CCC1(C)Oc2c(c(O)cc3c2CN(C(Cc2ccccc2)C(=O)O)C3=O)CC1O` (stereo not drawn) [SMTP-4] here?
**A.** 1.79 ± 0.02 molTE/mol

**Q.** Which “free radical scavenging activity” value [1] does the source give for `CC(C)=CCC/C(C)=C/CC[C@]1(C)Oc2c(c(O)cc3c2CN(CCO)C3=O)C[C@@H]1O` [SMTP-1] here?
**A.** 4.35 ± 0.55 molTE/mol

**Q.** For `CC(C)=CCCC(C)=CCCC1(C)Oc2c(c(O)cc3c2CN(CCCCC(C(=O)O)N2Cc4c(cc(O)c5c4OC(C)(CCC=C(C)CCC=C(C)C)C(O)C5)C2=O)C3=O)CC1O` (stereo not drawn) [SMTP-8], which “free radical scavenging activity” value [1] is on record?
**A.** 1.69 ± 0.14 molTE/mol
